Where “and” joins values, the source holds several entries; their conditions need not be identical. Equal entries are not always repeated.
How the values were obtained:
Type in all cases: biochemical
Conditions in all cases: 1.5 mg/ml
[1] = test system: prothrombin; assay: Prothrombin time (plasma clotting time with PT reagent)
Procedure: (§1) The blood clotting inhibitory activity (thrombus formation inhibitory activity) of each of the wasp extracts prepared in Example 1 was evaluated by measuring the thrombin time, the prothrombin time and the aPTT time in the same manner as a previously reported method (Sohn et al., 2004. Kor. J. Pharmacogn 35. 52-61; Kwon et al., 2004. J. Life Science, 14. 509-513; Ryu et al., 2010. J. Life Science, 20. 922-928). As plasma, control plasma (MD Pacific Technology Co., Ltd., Huayuan Industrial Area, China) was used. The thrombin time, the prothrombin time and the aPTT time were measured by the following methods.
70 μl of standard plasma (MD Pacific Co., China) and 10 μl of each sample extract at various concentrations were added to a tube of Amelung coagulometer KC-1A (Japan) and warmed at 37° C. for 3 minutes, and then 130 μl of PT reagent was added thereto. The time taken for the plasma to clot was expressed as the average of three repeated experiments. […] The prothrombin inhibitory activity was expressed as the value obtained by dividing the clotting time after sample addition by the clotting time of the solvent control.

[2] = biological target: T1, human thrombin (Homo sapiens, UniProt P00734); assay: Thrombin time (plasma clotting time with added thrombin)
T1 construct: 50 μl of 0.5 U thrombin (Sigma Co., USA); purchased Sigma Co., USA
Procedure: as §1
50 μl of 0.5 U thrombin (Sigma Co., USA), 50 μl of 20 mM CaCl2) and 10 μl of each sample extract at various concentrations were mixed in a tube of Amelung coagulometer KC-1A (Japan) at 37° C. and allowed to react for 2 minutes, and then 100 μl of plasma was added thereto and the time taken for the plasma to clot was measured. As a control, aspirin (Sigma Co., USA) was used, and a solvent control, DMSO was used instead of the sample. […] The thrombin inhibitory effect was expressed as the average of three or more repeated experiments, and the thrombin inhibitory activity was expressed as the value obtained by dividing the clotting time after sample addition by the clotting time of the solvent control.

[3] = test system: blood clotting factors; assay: Activated partial thromboplastin time (aPTT)
Procedure: as §1
Activated Partial Thromboplastin Time (aPTT)
100 μl of plasma and 10 μl of each sample extract at various concentrations were added to a tube of Amelung coagulometer KC-1A (Japan) and warmed at 37° C. for 3 minutes, and then 50 μl of aPTT reagent (Sigma, ALEXIN™) was added thereto, followed by incubation at 37° C. for 3 minutes. Thereafter, 50 μl of CaCl2) (35 mM) was added thereto, and then the time taken for the plasma to clot was measured. […] The aPTT was expressed as the average of three repeated experiments, and the blood clotting inhibitory activity was expressed as the value obtained by dividing the aPTT after sample addition by the aPTT of the solvent control.

CC(=O)Oc1ccccc1C(=O)O [Aspirin]
Prothrombin time (blood clotting time after sample addition/blood clotting time after solvent addition) ([1]; Table 2): 1.44 and 1.44 ± 0.04 | Prothrombin time (blood clotting time after sample addition/blood clotting time after solvent addition) ([1]; Table 4): 1.73 ± 0.01 | Thrombin time (blood clotting time after sample addition/blood clotting time after solvent addition) ([2]; Table 2): 1.54 and 1.54 ± 0.11 | Thrombin time (blood clotting time after sample addition/blood clotting time after solvent addition) ([2]; Table 4): 1.43 ± 0.04 | Blood clotting factor inhibition time (aPTT time) (sample/solvent) ([3]; Table 2): 1.55 and 1.55 ± 0.07 | Blood clotting factor inhibition time (aPT time) (sample/solvent) ([3]; Table 4): 1.42 ± 0.03
